In patent publication US7301070B2, “Plant fatty acid synthases and use in improved methods for production of medium-chain fatty acids” (Calgene LLC, priority 1997, dated 2007):

Experiments:
Synthase II (KAS II) = conditions: higher concentrations than KAS I; cited from earlier work
[1] = system: fatty acid synthesis in Brassica seed extracts; experiment: In vitro fatty acid synthesis assay in seed extracts preincubated with cerulenin; format: biochemical
Description: (§1) Seed extracts were prepared from developing seeds of nontransgenic controls or transgenic Brassica expressing chKAS A-2-7 as described in Slabaugh et al. (Plant Journal, 1998 in press) and Leonard et al. (Plant Journal, 1998, in press). In vitro fatty acid synthesis assays were performed as described by Post-Beittenmiller (J. Biol. Chem. (1991), 266:1858-1865). Extracts were concentrated by ammonium sulfate precipitation and desalting using P-6 columns (Bio-Rad, Hercules, Calif.). Reactions (65 μl) contained 0.1M Tris/HCl (pH 8.0), 1 mM dithiothreitol, […] recombinant spinach ACP1, 1 mM NADH, 2 mM NADPH, 50 μM malonyl-CoA, 10 μM [1-^14C]acetyl-CoA (50 mCi/mmol), 1 mg/ml BSA, and 0.25 mg/ml seed protein. Selected seed extracts were preincubated with cerulenin at 23° C. for 10 min. Reaction products were separated on an 18% acrlamide gel containing 2.25M urea, electroblotted onto to nitrocellulose and quntitated by phosporimaging using Image QuaNT software (Molecular Dynamics, Sunnyvale, Calif.). Authentic acyl-ACPs were run in parallel, immunoblotted and finally detected by anti-ACP serum to confirm fatty acid chain lengths.

Synthase III = conditions: cited from earlier work
Synthase I (KAS I) = conditions: cited from earlier work
Ch KAS A-2-7 = experiment: In vitro fatty acid synthesis assay, seed extracts of transgenic Brassica expressing chKAS A-2-7; format: biochemical, Cuphea hookeriana; conditions: conclusion from FIG. 22 data
Description: as §1

C/C=C/C/C=C/CCC(=O)[C@H]1O[C@H]1C(N)=O [cerulenin]
concentration of cerulenin at which KAS II is inhibited (Synthase II (KAS II)): 50 µM | inhibition of extension of the spinach-ACP by cerulenin ([1]; seed extracts from transgenic lines compared with nontransgenic control Brassica): much less inhibited | synthesis of longer chain fatty acids after pretreatment of extracts with cerulenin ([1]; transgenic (5401-9) and nontransgenic control seed extracts, preincubated at 23° C. for 10 min): markedly reduced | sensitivity of synthase III to cerulenin inhibition (Synthase III): insensitive to inhibition by cerulenin | concentration of cerulenin at which KAS I is sensitive to inhibition (Synthase I (KAS I)): 1 µM | sensitivity of chKAS A-2-7 to cerulenin (Ch KAS A-2-7): cerulenin-resistant
